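Assay format: 96-well plates, 48-hour exposure. The concentration for 50% growth inhibition is given as GI50.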 The source made the active and inactive calls. No stated cut-off is given here; in the data, active = GI50 up to about 1.1 µM and inactive = higher.
Columns and labels:
Experiment in all cases: NCI anticancer screen, dose series, 48 h
RXF 631 = test system: RXF 631
DMS-114 = test system: DMS-114
LXFL 529 = test system: LXFL 529
DLD-1 = test system: DLD-1
SNB-78 = test system: SNB-78
HOP-18 = test system: HOP-18
DMS-273 = test system: DMS-273
XF498 = test system: XF498

Measured: GI50

C/C(CC(=O)CCC(=O)Nc1cccc(C(F)(F)F)c1)=N\NC(=O)NN
inactive: RXF 631 > 100 µM | DMS-114 > 100 µM | LXFL 529 > 100 µM | DLD-1 > 100 µM | SNB-78 > 100 µM | HOP-18 > 100 µM | DMS-273 > 100 µM | XF498 > 100 µM

O=C1CCCC/C1=C/C=C/c1ccccc1
inactive: RXF 631 69.2 µM | LXFL 529 64.9 µM | DLD-1 46.9 µM | HOP-18 > 100 µM | XF498 > 100 µM

CCOC(=O)c1ccc(/N=C\c2ccc(N(CCC#N)CCC#N)cc2)cc1
inactive: RXF 631 > 100 µM | DMS-114 70 µM | LXFL 529 20.8 µM | DLD-1 41.7 µM | SNB-78 > 100 µM | DMS-273 35.9 µM | XF498 > 100 µM

COc1ccc(/C=C/c2nnc(S)[nH]2)cc1
inactive: RXF 631 > 100 µM | DMS-114 > 100 µM | LXFL 529 > 100 µM | DLD-1 > 100 µM | SNB-78 > 100 µM | DMS-273 > 100 µM | XF498 79.3 µM

Cc1nc(C(N)=S)sc1C(=O)/C=C/c1c(O)ccc2ccccc12
inactive: RXF 631 > 100 µM | DMS-114 32.5 µM | LXFL 529 30 µM | DLD-1 72.4 µM | SNB-78 > 100 µM | HOP-18 > 100 µM | DMS-273 > 100 µM | XF498 > 100 µM

CCCCCCCCCCNCCSSCc1ccc(Cl)cc1
inactive: RXF 631 1.69 µM | DMS-114 1.57 µM | LXFL 529 1.56 µM | DLD-1 2.07 µM | HOP-18 > 10 µM | DMS-273 1.4 µM | XF498 2.8 µM

CCOc1ccc(NC(=O)C(=O)CC(=O)C2=C(C)Nc3ccccc3S2)cc1
inactive: RXF 631 > 50 µM | DMS-114 > 50 µM | DLD-1 > 50 µM | HOP-18 > 50 µM | XF498 > 50 µM

NC1=NN(c2ccccc2)C(=O)C1C(=O)C(=O)Nc1cccc(C(F)(F)F)c1 (stereo not drawn)
inactive: RXF 631 > 100 µM | DMS-114 > 100 µM | LXFL 529 67.1 µM | DLD-1 > 100 µM | SNB-78 > 100 µM | HOP-18 67.9 µM | DMS-273 > 100 µM | XF498 > 100 µM

C#CC[N+](C)(CC#C)CC#C
inactive: RXF 631 > 100 µM | DMS-114 > 100 µM | LXFL 529 > 100 µM | DLD-1 > 100 µM | SNB-78 > 100 µM | DMS-273 > 100 µM | XF498 > 100 µM

Cn1c(=O)nc2n(-c3cccc(Cl)c3)c3ccccc3nc-2c1=O
inactive: RXF 631 13.5 µM | DMS-114 6.34 µM | LXFL 529 18.6 µM | SNB-78 23.7 µM | HOP-18 12.2 µM | DMS-273 9.55 µM | XF498 19.9 µM

CCCCCCCCCCCCCCCCCCOCC(C[N+]1(C)CCC(O)CC1)OCC (stereo not drawn)
inactive: RXF 631 4.93 µM | DMS-114 3.19 µM | LXFL 529 2.84 µM | DLD-1 11.8 µM | SNB-78 3.18 µM | DMS-273 2.28 µM | XF498 13.3 µM

Cc1cc(OC(=O)c2c(C)cc(OC(=O)c3c(C)cc(O)cc3O)cc2O)cc(O)c1C(=O)O [GYROPHORIC ACID]
inactive: RXF 631 > 100 µM | DMS-114 > 100 µM | LXFL 529 > 100 µM | DLD-1 > 100 µM | SNB-78 > 100 µM | DMS-273 > 100 µM | XF498 > 100 µM
